Reference: US20040054010A1, “Endosulfan formulation and methods of use thereof” (priority 2000, published 2004)
Counter-ions that a name gives are not always drawn. Like-named read-outs stand apart in the source and are kept apart here.

Tests used:
Helicoverpa zea = conditions: topical application in acetone; Walfenbarger and Guerra, 1972; cited from earlier work
Mice = conditions: ingestion, Dorough et al., 1978; cited from earlier work
Rats [1] = experiment: Acute toxicity after ingestion by rats; assay type: in vivo; conditions: rats and mice (Table 1)
Excerpt: A comparison of the acute toxicity of the isomers and the metabolite endosulfan sulfate after ingestion by rats and mice is shown in Table 1. […] Most studies investigating the chronic toxicity of endosulfan in mammals have not differentiated between the isomers. An exception is the neurotoxic action of endosulfan that has been attributed to the alpha-isomer.

[2] = tested on: Musca domestica (house fly); conditions: topical application in acetone, cited from earlier work
Heliothis virescens = conditions: topical application in acetone; Walfenbarger and Guerra, 1972; cited from earlier work
Rats [3] = conditions: ingestion, Goebel et al., 1982; cited from earlier work
[4] = Singh et al., 1991, cited from earlier work
[5] = tested on: GABA-gated chloride channel; conditions: Abalis et al., 1985, 1986; Gant et al., 1987; cited from earlier work

Compound | LD50 (Helicoverpa zea) | LD50 (Mice) | acute toxicity relative to the beta-isomer (Rats [1]) | LD50 ([2]; Barnes and Ware, 1965) | LD50 (Heliothis virescens) | LD50 (Rats [3]) | susceptibility to photolysis relative to the alpha-isomer [4] | vulnerability to chemical hydrolysis relative to the alpha-isomer ([4]; neutral and alkali pH) | LD50 ([2]; Lindquist and Dahm, 1957) | potency at inhibiting GABA-induced chloride flux relative to the beta-isomer [5]
O=S1(=O)OCC2C(CO1)C1(Cl)C(Cl)=C(Cl)C2(Cl)C1(Cl)Cl (stereo not shown) [endosulfan sulfate] | 820 µg/g | 8 mg/kg | approximately four fold higher | 9.5 µg/g | high* | 76 mg/kg |  |  |  | 
O=S1OC[C@@H]2[C@H](CO1)[C@]1(Cl)C(Cl)=C(Cl)[C@]2(Cl)C1(Cl)Cl (stereo partly drawn) [beta-endosulfan] | 4140 µg/g | 36 mg/kg |  | 9.0 µg/g | 4960 µg/g | 240 mg/kg | over twice as susceptible | approximately 25% | 0.19 μg · fly^−1 | 
O=S1OC[C@@H]2[C@H](CO1)[C@@]1(Cl)C(Cl)=C(Cl)[C@]2(Cl)C1(Cl)Cl (stereo partly drawn) [alpha-endosulfan] | 630 µg/g | 11 mg/kg | approximately four fold higher | 5.5 µg/g | high* | 76 mg/kg |  |  | 0.14 μg · fly^−1 | much more potent
